Measured values from PubChem BioAssay AID743231 (The Scripps Research Institute Molecular Screening Center, 2013).
pIC50: −log10 of the molar value. Calls of active or inactive are those of the source. The limit is not given here; nearly all actives have IC50 up to about 7.9 µM.

target: Trace amine-associated receptor 1 (Homo sapiens) (UniProt Q96RJ0); assay: TAAR1 desensitization potency of agonists, dose response, counter-screen for TAAR1 agonist project, cell-based, fluorescence, late stage (AID 743231); conditions: hTAAR1 cells
Sequence (Q96RJ0 whole entry, looked up): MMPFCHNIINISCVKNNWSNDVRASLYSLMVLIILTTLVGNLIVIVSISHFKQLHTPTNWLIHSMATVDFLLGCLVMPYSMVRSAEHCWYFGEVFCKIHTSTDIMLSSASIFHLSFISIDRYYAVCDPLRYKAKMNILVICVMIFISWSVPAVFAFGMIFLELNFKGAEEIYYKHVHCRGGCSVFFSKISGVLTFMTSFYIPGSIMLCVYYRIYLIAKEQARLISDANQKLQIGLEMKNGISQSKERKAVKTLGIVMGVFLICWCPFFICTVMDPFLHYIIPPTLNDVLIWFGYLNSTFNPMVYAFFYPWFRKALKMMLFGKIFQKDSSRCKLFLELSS

SMILES	pIC50	IC50
O=C(CCCCl)N1CCc2[nH]c3ccccc3c2C1	5.96	–
COc1cc(C(=O)CCN2CCC(c3ccccc3)C2)cc(OC)c1OC (stereo not given)	5.82	–
O=C(Nc1cccc2ccccc12)N1CCc2ccccc2C1	–	> 29900 nM (inactive)
OCCNc1nc(Nc2cccc(O)c2)nc2ccccc12	6.61	–
CCOC(=O)C(NC(=O)CC)(N1CCc2ccccc2C1)C(F)(F)F (stereo not given)	6.21	–
Cc1cc(C)n(C(CC(=O)N2CCc3ccccc3C2)C(=O)O)n1 (stereo not given)	5.92	–
c1ccc2c(c1)CCN(c1nc3cc4c(cc3s1)OCO4)C2	5.65	–
O=C(CCN1CCC(c2ccccc2)C1)c1ccc2c(c1)OCCO2 (stereo not given)	6.07	–
O=C(CCN1CCc2ccccc2CC1)c1ccc2c(c1)OCCO2	6.00	–
O=C(CCN1CCC(c2ccccc2)C1)c1cccs1 (stereo not given)	6.08	–
Nc1nc(Nc2ccccc2)nc2ccccc12	6.19	–
O=C(Nc1ccccc1)Nc1ccncc1	5.56	–
c1ccc2c3c([nH]c2c1)CCNC3	5.95	–
O=C(Nc1ccncc1)Nc1ccc(F)cc1	5.61	–
CC1(C)CCCN(C(=O)c2coc(=O)c(Br)c2)C1	5.59	–
Cc1ccc(NC(=O)CCN2CCc3ccccc3C2)cc1	5.08	–
OCCNc1nc(Nc2ccc(O)cc2)nc2ccccc12	5.73	–
O=C(Nc1cccnc1)Nc1cccc(F)c1	5.19	–
O=C(C(=O)N1CCc2ccccc2C1)c1cn(CC(=O)N2CCCCC2)c2ccccc12	5.57	–
c1ccc(CCn2nnnc2C(c2cccs2)N2CCN(Cc3ccc4c(c3)OCO4)CC2)cc1 (stereo not given)	5.87	–
Cc1cc(N(C)C)nc(Nc2ccccc2)n1	6.68	–
CCOC(=O)C(NC(C)=O)(N1CCc2ccccc2C1)C(F)(F)F (stereo not given)	6.19	–
CC(=NCCc1ccccc1)C1CCOC1=O (stereo not given)	5.55	–
Nc1nc(Nc2cccc(F)c2)nc2ccccc12	5.89	–
NC(N)=NN=Cc1c(Cl)cccc1Cl	6.11	–
